Assay results taken from patent US6350741B1, “Inhibitors of interleukin-1β converting enzyme” (Vertex Pharmaceutical, Inc., priority 1996, dated 2002).

What was measured:
[1] = test system: IL-1β production in human whole blood; test: Whole blood assay for IL-1β production; type: cell-based; settings: LPS-stimulated human whole blood, IL-1β by ELISA
Experimental: Whole Blood Assay for IL-1β Production
The whole blood assay is a simple method for measuring the production of IL-1β (or other cytokines) and the activity of potential inhibitors. The complexity of this assay system, with its full complement of lymphoid and inflammatory cell types, spectrum of plasma proteins and red blood cells is an ideal in vitro representation of human in vivo physiologic conditions.
Set incubator or water bath at 30° C. Aliquot 0.25 ml of blood into 1.5 ml eppendorf tubes. Note: be sure to invert the whole blood sample tubes after every two aliquots. Differences in replicates may result if the cells sediment and are not uniformly suspended. Use of a positive displacement pipette will also minimize differences between replicate aliquots.
Prepare drug dilutions in sterile pyrogen-free saline by serial dilution. A dilution series which brackets the apparent Ki for a test compound determined in an ICE inhibition assay is generally used for the primary compound screen. For extremely hydrophobic compounds, prepare compound dilutions in fresh plasma obtained from the same blood donor or in PBS-containing 5% DMSO to enhance solubility.
Add 25 μl test compound dilution or vehicle control and gently mix the sample. Then add 5.0 μl LPS solution (250 ng/ml stocked prepared fresh: 5.0 ng/ml final concentration LPS), and mix again. Incubate the tubes at […] in a water bath for 16-18 hr with occasional mixing. Alternatively, the tubes can be placed in a rotator set at 4 rpm for the same incubation period. This assay should be set up in duplicate or triplicate with the following controls: negative control—no LPS; positive control—no test inhibitor; vehicle control—the highest concentration of DMSO or compound solvent used in the experiment. Additional saline is added to all control tubes to normalize volumes for both control and experimental whole blood test samples.
After the incubation period, whole blood samples are centrifuged for 10 minutes at ˜2000 rpm in the microfuge, plasma is transferred to a fresh microfuge tube and centrifuged at 1000×g to pellet residual platelets if necessary. Plasma samples may be stored frozen at −70° C. prior to assay for cytokine levels by ELISA.
R & D Systems (614 McKinley Place N.E. Minneapolis, Minn. 55413) Quantikine kits may be used for measurement of IL-1β and TNF-α. The assays are performed according to the manufacturer's directions. IL-1β levels of ˜1-5 ng/ml in positive controls among a range of individuals may be observed. A 1:200 dilution of plasma for all samples is usually sufficient for experiments for ELISA results to fall on the linear range of the ELISA standard curves. It may be necessary to optimize standard dilutions if you observe differences in the whole blood assay. Nerad, J. L. et al., J. Leukocyte Biol., 52, pp. 687-692 (1992).

ICE = molecular target: T1, ICE (Homo sapiens, UniProt P29466); test: Enzyme assay with UV-visible substrate (ICE inhibition); type: biochemical; settings: Succinyl-Tyr-Val-Ala-Asp-p-Nitroanilide substrate
T1 sequence (P29466 120-297 limits assumed): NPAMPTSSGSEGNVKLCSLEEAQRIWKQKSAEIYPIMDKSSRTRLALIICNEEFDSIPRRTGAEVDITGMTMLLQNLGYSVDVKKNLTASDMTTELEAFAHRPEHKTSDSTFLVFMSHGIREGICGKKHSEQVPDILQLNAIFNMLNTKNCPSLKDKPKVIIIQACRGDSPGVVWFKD
T1 sequence (P29466 317-404 limits assumed): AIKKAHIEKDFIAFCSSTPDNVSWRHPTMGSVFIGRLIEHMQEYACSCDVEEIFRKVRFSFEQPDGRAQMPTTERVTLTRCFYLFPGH
Experimental: 1. Enzyme Assay with UV-visible Substrate
This assay is run using an Succinyl-Tyr-Val-Ala-Asp-p-Nitroanilide substrate. Synthesis of analogous substrates is described by L. A. Reiter (Int. J. Peptide Protein Res., 43, pp. 87-96 (1994)). The assay mixture contains:
65 μl buffer (10 mM Tris, 1 mM DTT, 0.1% CHAPS @ pH 8.1)
10 μl ICE (50 nM final concentration to give a rate of ˜1 mOD/min)
5 μl DMSO/Inhibitor mixture
20 μl 400 μM Substrate (80 μM final concentration)
100 μl total reaction volume
The visible ICE assay is run in a 96-well microtiter plate. Buffer, ICE and DMSO (if inhibitor is present) are added to the wells in the order listed. The components are left to incubate at room temperature for 15 minutes starting at the time that all components are present in all wells. The microtiter plate reader is set to incubate at 37° C. After the 15 minute incubation, substrate is added directly to the wells and the reaction is monitored by following the release of the chromophore (pNA) at 405-603 nm at 37° C. for 20 minutes. A linear fit of the data is performed and the rate is calculated in mOD/min. DMSO is only present during experiments involving inhibitors, buffer is used to make up the volume to 100 μl in the other experiments.
For determination of enzyme inhibition constants (Ki) or the mode of inhibition (competitive, uncompetitive or noncompetitive), the rate data determined in the enzyme assays at varying inhibitor concentrations are computer-fit to standard enzyme kinetic equations (see I. H. Segel, Enzyme Kinetics, Wiley-Interscience, 1975).

[2] = test system: mature IL-1β in human PBMC; test: PBMC cell assay (IL-1β assay with human peripheral blood mononuclear cells); type: cell-based; settings: LPS-stimulated human PBMC, mature IL-1β by ELISA
Description: IL-1β Assay with a Mixed Population of Human Peripheral Blood Mononuclear Cells (PBMC) or Enriched Adherent Mononuclear Cells
Processing of pre-IL-1β by ICE can be measured in cell culture using a variety of cell sources. Human PBMC obtained from healthy donors provides a mixed population of lymphocyte subtypes and mononuclear cells that produce a spectrum of interleukins and cytokines in response to many classes of physiological stimulators. Adherent mononuclear cells from PBMC provides an enriched source of normal monocytes for selective studies of cytokine production by activated cells.
An initial dilution series of test compound in DMSO or ethanol is prepared, with a subsequent dilution into RPMI-10% FBS media (containing 2 mM L-glutamine, 10 mM HEPES, 50 U and 50 ug/ml pen/strep) respectively to yield drugs at 4×the final test concentration containing 0.4% DMSO or 0.4% ethanol. The final concentration of DMSO is 0.1% for all drug dilutions. A concentration titration which brackets the apparent Ki for a test compound determined in an ICE inhibition assay is generally used for the primary compound screen.
Generally 5-6 compound dilutions are tested and the cellular component of the assay is performed in duplicate, with duplicate ELISA determinations on each cell culture supernatant.
Buffy coat cells isolated from one pint human blood (yielding 40-45 ml final volume plasma plus cells) are diluted with media to 80 ml and LeukoPREP separation tubes (Becton Dickinson) are each overlaid with 10 ml of cell suspension. After 15 min centrifugation at 1500-1800×g, the plasma/media layer is aspirated and then the mononuclear cell layer is collected with a Pasteur pipette and transferred to a 15 ml conical centrifuge tube (Corning). Media is added to bring the volume to 15 ml, gently mix the cells by inversion and centrifuge at 300×g for 15 min. The PBMC pellet is resuspended in a small volume of media, the cells are counted and adjusted to 6×10^6 cells/ml.
For the cellular assay, 1.0 ml of the cell suspension is added to each well of a 24-well flat bottom tissue culture plate (Corning), 0.5 ml test compound dilution and 0.5 ml LPS solution (Sigma #L-3012; 20 ng/ml solution prepared in complete RPMI media; final LPS concentration 5 ng/ml). The 0.5 ml additions of test compound and LPS are usually sufficient to mix the contents of the wells. Three control mixtures are run per experiment, with either LPS alone, solvent vehicle control, and/or additional media to adjust the final culture volume to 2.0 ml. The cell cultures are incubated for 16-18 hr at 37° C. in the presence of 5% CO2.
At the end of the incubation period, cells are harvested and transferred to 15 ml conical centrifuge tubes. After centrifugation for 10 min at 200×g, supernatants are harvested and transferred to 1.5 ml Eppendorf tubes. It may be noted that the cell pellet may be utilized for a biochemical evaluation of pre-IL-1β and/or mature IL-1β content in cytosol extracts by Western blotting or ELISA with pre-IL-1β specific antisera.
PBMC are isolated and prepared as described above. Media (1.0 ml) is first added to wells followed by 0.5 ml of the PBMC suspension. After a one hour incubation, plates are gently shaken and nonadherent cells aspirated from each well. Wells are then gently washed three times with 1.0 ml of media and final resuspended in 1.0 ml media. The enrichment for adherent cells generally yields 2.5-3.0×10^5 cells per well. […]

IL-1β = test: LPS-induced IL-1β production in mice; type: in vivo, mouse; settings: PO @ 100 mg/kg, compound given 1 hour relative to LPS challenge
Experimental: In vivo Acute Assay for Efficacy as Anti-inflammatory Agent
LPS-Induced IL-1β Production
Efficacy is evaluated in CD1 mice (n is 6 per condition, for example) challenged with LPS (20 mg/kg IP). The test compounds are prepared in olive oil:DMSO:ethanol (90:5:5) and administered by IP injection one hour after LPS. Blood is collected seven hours after LPS challenge. Serum IL-1β levels are measured by ELISA.
Compounds may also be administered by oral gavage to assess absorption.
We obtained inhibition data in Table 5 using the methods described in Example 12. Efficacy for Prodrugs in LPS-Induced IL-1β Production in Mice. Time of compound administration relative to time of LPS challenge was 1 hour. Dose of compound was PO @ 100 mg/kg.

[3] = In vivo bioavailability determination (oral dosing to rats); settings: rat
Experimental: In vivo Bioavailability Determination
The drugs (10-100 mg/kg) were dosed orally to rats (10 mL/kg) in ethanol/PEG/water, β-cyclodextrin, labrosol/water or cremophor/water. Blood samples were drawn from the carotid artery at 0.25, 0.50, 1, 1.5, 2, 3, 4, 6, and 8 hours after dosing, centrifuged to separate plasma and stored at −70° C. until analyzed. Aldehyde concentrations were determined using HPLC/MS. Pharmacokinetic analysis of data was performed by non-linear regression using RStrip (MicroMath Software, UT). Drug availability values may be determined as follows: (AUC of drug after oral prodrug dosing/AUC of drug after i.v. dosing of drug)×(dose i.v./dose p.o.)×100%.

Molecule | IC50 [1] [µM] | Ki (ICE) [nM] | IC50 [2] [nM] | % Inhibition of IL-1β (IL-1β) [%] | blood levels of drug when dosed orally ([3]; oral prodrug dosing) | Cmax ([3]; oral, dose 50 mg/kg, aldehyde (drug) concentration after prodrug dosing) [µg/mL]
O=C[C@H](CC(=O)O)NC(=O)CN1C(=O)[C@@H](NC(=O)c2nccc3ccccc23)COc2ccccc21 [Compound 6a] | > 20 | 22 | 1000 | – | – | –
O=C[C@H](CC(=O)O)NC(=O)CN1C(=O)[C@@H](NC(=O)c2c[nH]c3ccccc23)COc2ccccc21 [Compound 6c] | > 20 | 20 | 650 | – | – | –
Cc1cc(C(=O)N[C@H]2CSc3ccccc3N(CC(=O)N[C@H](C=O)CC(=O)O)C2=O)cc(C)c1O [Compound 11a, (3S)-3-[(3S)-3-(3,5-Dimethyl-4-hydroxybenzoyl)amino-4-oxo-2,3,4,5-tetrahydro-5H-1,5-benzothiazepine-5-acetylamino]-4-oxo-butyric acid] | 8.8 | 7.5 | – | – | – | –
O=C[C@H](CC(=O)O)NC(=O)CN1C(=O)[C@@H](NC(=O)c2nccc3ccccc23)CSc2ccccc21 [Compound 11b] | 19 | 14 | 800 | – | – | –
Cc1cc(C(=O)N[C@H]2CC(=O)c3ccccc3N(CC(=O)N[C@H](C=O)CC(=O)O)C2=O)cc(C)c1O [Compound 17a, (3S)-3-[(3S)-2,5-Dioxo-3-(3,5-dimethyl-4-hydroxybenzoyl)amino-2,3,4,5-tetrahydro-1H-1-benzazepine-1-acetylamino]-4-oxo-butyric acid] | 3.2 | 12 | – | – | – | –
O=C[C@H](CC(=O)O)NC(=O)CN1C(=O)[C@@H](NC(=O)c2nccc3ccccc23)CC(=O)c2ccccc21 [Compound 17b, (3S)-3-[(3S)-2,5-Dioxo-3-(isoquinolin-1-oyl)amino-2,3,4,5-tetrahydro-1H-1-benzazopine-1-acetylamino]-4-oxo-butyric acid.] | > 20 | 45 | 1720 | – | – | –
O=C[C@H](CC(=O)O)NC(=O)CN1C(=O)[C@@H](NC(=O)c2nccc3ccccc23)CS(=O)(=O)c2ccccc21 [Compound 19a] | 9.5 | 140 | 770 | – | – | –
(3S)-2,5-Dioxo-3-(Isoquinolin-3-oyl)amino-2,3,4,5-tetrahyo-1H-1-benzazepine-N-((2RS, 3S)-2-benzyloxy-5-oxo-tetrahydrofuran-3-yl)-1-acetamide [Compound 16b] | – | – | – | 53 | significant blood levels of drug | 6.1
(3S)-3-(Isoquinolin-1-oyl)amino-4-oxo-2,3,4,5-tetrahydo-5H-1,5-benzothiazepine-N-((2RS, 3S)-2-benzyloxy-5-oxo-tetrahydrofuran-3-yl)-5-acetamide [Compound 10b] | – | – | – | 74 | – | –
(3S)-3-(Isoquinolin-1-oyl)amino-4-oxo-2,3,4,5-tetrahydro-5H-1,5-benzoxazepine-N-[(2RS, 3S)-2-benzyloxy-5-oxo-tetrahydrofuran-3-yl]-5-acetamide [Compound 5a] | – | – | – | 58 | – | –
